How the values were obtained:
Format in all cases: cell-based
[1] = system: Gayralia oxysperma spores; assay: Macroalgal spore germination inhibition; details: 6 days, 19±1 °C
Description: (§1) All the biological assays were run by triplicate. […] For the active products, serial dilutions were performed to calculate the half-maximal inhibitory concentrations (IC50) or the minimal inhibitory concentrations (MIC). Unless otherwise stated, the test concentrations were 100, 50, 25, 10, 5, 2.5, 1, 0.5 and 0.1 μM. Dose-response curves were adjusted with GraphPad Prism 5 software using a four-parameter non-linear regression model.
To evaluate the effect of the phosphonium salts on the germination of macroalgal spores, Gayralia oxysperma (Kützing) K.L.Vinogradova was selected as model organism. G. oxysperma (Ulotrichales, Chlorophyta) is a cosmopolitan member of the Ulvophyceae. Unlike Ulva species, which produce biflagellate male and female gametes, as well as quadriflagellate spores, G. oxysperma only produces biflagellate spores. This is an advantage as bioassays can be conducted straightforwardly without the need to distinguish between gamete-producing and zoospore-producing plants. […] Fresh fertile fragments were selected and placed in Petri dishes. Spores were then released in Von Stosch Solution (VSS) by the osmotic method. Bioassays were conducted in flat-bottom 96-well plates as described by Chambers and co-workers, with slight modifications. Each well was filled with 50 μl of the appropriate dilution of the products in VSS to which 50 μl of spore inoculum (ca. 2 x 10^5 spores ml^-1) were added. Plates were incubated at 19±1 °C for 6 days. After the incubation time, the bottom of each well was examined for the presence of germinated spores with an inverted microscope. A spore was considered as germinated when the germ tube was visible. The MIC was recorded as the lowest concentration inhibiting spore germination.

[2] = system: Vibrio anguillarum CECT 4347; assay: Marine bacteria growth inhibition (broth microdilution, OD625); details: growth inhibition, 24 h, 30 °C, three replicates; read-out: IC50 V. anguillarum
Description: as §1
(§2) Growth inhibition was assessed in Marine Broth (Conda) according to CLSI guidelines for broth microdilution susceptibility testing. The incubation time was 24 h and the incubation temperature was 30 °C.

[3] = system: Vibrio alginolyticus CECT 521; assay: as above; details: growth inhibition, 24 h, 30 °C, three replicates; read-out: IC50 V. alginolyticus
Description: as §1, §2

[4] = system: Pseudoalteromonas atlantica CECT 579; assay: as above; details: growth inhibition, 24 h, 30 °C, three replicates; read-out: IC50 P. atlantica
Description: as §1, §2

[5] = system: Cobetia marina CECT 4278; assay: as above; details: growth inhibition, 24 h, 30 °C, three replicates; read-out: IC50 C. marina
Description: as §1, §2

[6] = system: Shewanella algae CECT 5021; assay: as above; details: growth inhibition, 24 h, 30 °C, three replicates; read-out: IC50 S. algae
Description: as §1, §2

[7] = system: Cellulophaga lytica CECT 5014; assay: as above; details: growth inhibition, 24 h, 30 °C, three replicates; read-out: IC50 C. lytica
Description: as §1, §2

[8] = system: Navicula cf. salinicola BEA 0055; assay: Benthic diatom growth inhibition (chlorophyll-a); details: growth, 5 days, chlorophyll-a; read-out: IC50 Navicula cf. salinicola
Description: as §1
(§3) Five strains of benthic diatoms, Nitszchia sp. […] The Nitzschia and Navicula strains were purchased from the Spanish Bank of Algae (Marine Biotechnology Center, University of Las Palmas de Gran Canaria). The other three strains were kindly provided by Dr. G. Courtois (University of Las Palmas de Gran Canaria). Diatoms were cultured at 19±1 °C in Erlenmeyer flaks (250 ml) containing 150 ml of Guillard’s F/2 medium, and subjected to a photoperiod of 18:6. Tests were run in 48-well plates. Inocula were prepared by adjusting diatom concentration to 2–4 × 10^6 cells ml^-1 using a Neubauer chamber. Test products were dissolved in F/2 medium (500 μl) to which diatom inocula (500 μl) were added. Thus, the final assay volume was 1 ml and the starting cell densities were ca. 1–2 x 10^6 diatoms ml^-1. Plates were incubated under the abovementioned conditions for 5 days and then chlorophyll-a (Chla) was quantified.
(§4) In order to extract Chla, the content of each well was transferred to a microcentrifuge tube and centrifuged at 10,000 rpm for 10 min. The supernatants were discarded and 200 μl of DMSO were added to the pellets. The tubes were incubated at 65 °C for 2 h in total darkness and vortexed every 30 min. Then, the content of each tube was transferred to a 96-well plate and the amount of Chla was determined spectrophotometrically. Path length correction factor for the DMSO extracts was determined.

[9] = system: Phaeodactylum tricornutum; assay: Benthic diatom growth inhibition (chlorophyll-a); details: growth, 5 days, chlorophyll-a; read-out: IC50 P. tricornutum
Description: as §1, §3, §4

[10] = system: Nitzschia sp.; assay: Benthic diatom growth inhibition (chlorophyll-a); details: growth, 5 days, chlorophyll-a; read-out: IC50 Nitzschia sp.
Description: as §1, §3, §4

[11] = system: Amphora sp.; assay: Benthic diatom growth inhibition (chlorophyll-a); details: growth, 5 days, chlorophyll-a; read-out: IC50 Amphora sp.
Description: as §1, §3, §4

[12] = system: Cylindrotheca sp.; assay: Benthic diatom growth inhibition (chlorophyll-a); details: growth, 5 days, chlorophyll-a; read-out: IC50 Cylindrotheca sp.
Description: as §1, §3, §4

[13] = system: Fusarium sp.; assay: Marine-derived fungi growth inhibition (OD405); details: 5 days, 26 °C
Description: All the biological assays were run by triplicate.
(§5) Three strains of marine-derived fungi were kindly provided by Dr. Á. Trigos (University of Veracruz, Mexico). The strains were isolated from reef organisms collected from the Veracruz Reef System and identified as Aspergillus sp., Fusarium sp. and Alternaria sp..
(§6) Fungal strains were cultured in Potato-Dextrose Agar (PDA) supplemented with filtered seawater (FSW) (50% v/v) at 26 °C for 5 days prior to experiments. […] Briefly, fungal inocula were prepared by addition of 5 ml of sterile saline solution to the cultures. Gently swabbing released conidia. […] The plates were incubated for 5 days at 26 °C. The calculation of the half-maximal inhibitory concentrations (IC50) was performed using OD405 as endpoint.

[14] = system: Aspergillus sp.; assay: Marine-derived fungi growth inhibition (OD405); details: growth inhibition, 5 days, 26 °C; read-out: IC50 Aspergillus sp.
Description: as §1, §5, §6

[15] = system: Alternaria sp.; assay: Marine-derived fungi growth inhibition (OD405); details: growth inhibition, 5 days, 26 °C; read-out: IC50 Alternaria sp.
Description: as §1, §5, §6

bis-(tris-n-butyltin)oxide [TBTO, reference compound]
MIC G. oxysperma (lowest concentration inhibiting spore germination) [1]: 5 µM
IC50 [2]: 27.5 µM
IC50 [3]: 38.6 µM
IC50 [4]: 46.6 µM
IC50 [5]: 34.2 µM
IC50 [6]: 6.4 µM
IC50 [7]: 0.5 µM
IC50 [8]: 6.3 µM
IC50 [9]: 1.7 µM
IC50 [10]: 2.8 µM
IC50 [11]: 5.7 µM
IC50 [12]: 0.4 µM
IC50 [13]: 6.7 µM
IC50 [14]: 3 µM
IC50 [15]: 0.6 µM
